Data reported in patent publication US9492471B2, “Methods of treating a disease or disorder associated with Bruton'S Tyrosine Kinase” (Celgene Avilomics Research, Inc., priority 2013, dated 2016).
Read-outs that look alike come from different tables or passages of the source.

Assays:
Experiment in all cases: HotSpot kinase profiling
Assay type in all cases: biochemical
[1] = biological target: T1, ALK4/ACVR1B (Homo sapiens, UniProt P36896)
T1 construct: purchased Reaction Biology Corp
T1 sequence (P36896 24-505): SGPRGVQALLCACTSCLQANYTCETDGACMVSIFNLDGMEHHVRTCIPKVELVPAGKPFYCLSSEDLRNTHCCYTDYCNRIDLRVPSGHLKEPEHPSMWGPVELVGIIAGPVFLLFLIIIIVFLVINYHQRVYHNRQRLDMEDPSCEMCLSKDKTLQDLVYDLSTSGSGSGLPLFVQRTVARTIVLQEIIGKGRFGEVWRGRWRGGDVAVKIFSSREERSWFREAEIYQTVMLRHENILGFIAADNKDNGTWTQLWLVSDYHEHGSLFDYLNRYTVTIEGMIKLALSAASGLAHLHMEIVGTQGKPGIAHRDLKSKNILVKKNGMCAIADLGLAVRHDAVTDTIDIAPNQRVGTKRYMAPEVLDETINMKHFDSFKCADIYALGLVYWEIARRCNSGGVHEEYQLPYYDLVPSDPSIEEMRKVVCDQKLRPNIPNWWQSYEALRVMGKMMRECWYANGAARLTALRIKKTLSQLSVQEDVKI
Procedure, shortened: (§1)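 P81 filtration radiometric readout; 2 h incubation at room temperature; 0.1% phosphoric acid wash; DMSO negative control; % inhibition, mean of replicate runs.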

[2] = biological target: T2, GRK7 (Homo sapiens, UniProt Q8WTQ7)
T2 construct: purchased Reaction Biology Corp
T2 sequence (Q8WTQ7 1-553): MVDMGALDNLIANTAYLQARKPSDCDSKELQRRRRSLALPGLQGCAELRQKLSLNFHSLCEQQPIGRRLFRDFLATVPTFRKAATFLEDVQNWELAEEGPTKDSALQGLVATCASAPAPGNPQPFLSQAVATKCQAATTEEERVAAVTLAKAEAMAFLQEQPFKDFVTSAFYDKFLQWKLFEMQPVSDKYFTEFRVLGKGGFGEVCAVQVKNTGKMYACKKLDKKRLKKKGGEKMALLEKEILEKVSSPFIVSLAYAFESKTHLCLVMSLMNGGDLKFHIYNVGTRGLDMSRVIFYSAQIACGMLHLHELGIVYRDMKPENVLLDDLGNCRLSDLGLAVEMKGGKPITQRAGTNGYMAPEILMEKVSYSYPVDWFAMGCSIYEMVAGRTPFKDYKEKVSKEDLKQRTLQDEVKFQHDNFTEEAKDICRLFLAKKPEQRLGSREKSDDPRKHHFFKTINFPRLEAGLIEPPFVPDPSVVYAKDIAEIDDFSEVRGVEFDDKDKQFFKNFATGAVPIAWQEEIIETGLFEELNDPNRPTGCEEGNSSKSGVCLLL
Procedure, shortened: as §1

[3] = biological target: T3, GRK5 (Homo sapiens, UniProt P34947)
T3 construct: purchased Reaction Biology Corp
T3 sequence (P34947 whole entry): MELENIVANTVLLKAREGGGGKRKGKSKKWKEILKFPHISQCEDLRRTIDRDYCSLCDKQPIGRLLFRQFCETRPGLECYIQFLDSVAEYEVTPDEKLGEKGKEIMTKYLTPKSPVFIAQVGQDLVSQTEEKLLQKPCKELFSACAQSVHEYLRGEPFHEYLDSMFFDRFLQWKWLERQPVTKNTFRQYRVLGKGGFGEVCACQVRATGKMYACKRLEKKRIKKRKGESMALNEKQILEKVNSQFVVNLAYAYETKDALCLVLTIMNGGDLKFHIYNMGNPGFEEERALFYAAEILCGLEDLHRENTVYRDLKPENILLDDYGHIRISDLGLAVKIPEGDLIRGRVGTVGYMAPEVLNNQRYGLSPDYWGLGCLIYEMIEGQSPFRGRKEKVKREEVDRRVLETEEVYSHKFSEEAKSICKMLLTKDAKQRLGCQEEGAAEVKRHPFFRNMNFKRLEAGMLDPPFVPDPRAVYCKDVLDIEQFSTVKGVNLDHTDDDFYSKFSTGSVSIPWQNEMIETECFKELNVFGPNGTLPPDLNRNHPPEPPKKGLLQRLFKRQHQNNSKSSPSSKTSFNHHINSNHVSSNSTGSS
Procedure, shortened: as §1

[4] = biological target: T4, CK2a (Homo sapiens, UniProt P68400)
T4 construct: purchased Reaction Biology Corp
T4 sequence (P68400 whole entry): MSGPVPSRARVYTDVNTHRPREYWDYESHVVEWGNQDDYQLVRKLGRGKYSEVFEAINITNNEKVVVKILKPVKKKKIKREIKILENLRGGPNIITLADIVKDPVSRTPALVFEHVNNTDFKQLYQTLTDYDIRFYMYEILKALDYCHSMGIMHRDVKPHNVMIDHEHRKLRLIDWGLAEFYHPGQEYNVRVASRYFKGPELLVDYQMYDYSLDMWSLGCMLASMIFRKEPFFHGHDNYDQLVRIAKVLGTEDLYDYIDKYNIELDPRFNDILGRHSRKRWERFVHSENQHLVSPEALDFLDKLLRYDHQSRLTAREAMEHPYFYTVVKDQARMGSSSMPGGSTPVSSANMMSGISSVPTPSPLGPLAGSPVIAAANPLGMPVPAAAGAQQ
Procedure, shortened: as §1

[5] = biological target: T5, MST3/STK24 (Homo sapiens, UniProt Q9Y6E0)
T5 construct: purchased Reaction Biology Corp
T5 sequence (Q9Y6E0 whole entry): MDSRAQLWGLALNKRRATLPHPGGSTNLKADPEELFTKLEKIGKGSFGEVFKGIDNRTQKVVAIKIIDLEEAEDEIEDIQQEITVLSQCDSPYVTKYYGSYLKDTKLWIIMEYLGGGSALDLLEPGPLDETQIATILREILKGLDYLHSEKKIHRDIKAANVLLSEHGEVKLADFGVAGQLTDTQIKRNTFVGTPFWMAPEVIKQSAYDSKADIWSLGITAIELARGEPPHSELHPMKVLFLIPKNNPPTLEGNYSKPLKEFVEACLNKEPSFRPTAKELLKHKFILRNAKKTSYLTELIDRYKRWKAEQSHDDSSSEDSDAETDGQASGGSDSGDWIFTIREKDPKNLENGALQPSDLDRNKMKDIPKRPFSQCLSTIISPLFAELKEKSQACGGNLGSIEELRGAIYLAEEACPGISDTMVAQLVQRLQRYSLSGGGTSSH
Procedure, shortened: as §1

[6] = biological target: T6, CK1d (Homo sapiens, UniProt P48730)
T6 construct: purchased Reaction Biology Corp
T6 sequence (P48730 whole entry): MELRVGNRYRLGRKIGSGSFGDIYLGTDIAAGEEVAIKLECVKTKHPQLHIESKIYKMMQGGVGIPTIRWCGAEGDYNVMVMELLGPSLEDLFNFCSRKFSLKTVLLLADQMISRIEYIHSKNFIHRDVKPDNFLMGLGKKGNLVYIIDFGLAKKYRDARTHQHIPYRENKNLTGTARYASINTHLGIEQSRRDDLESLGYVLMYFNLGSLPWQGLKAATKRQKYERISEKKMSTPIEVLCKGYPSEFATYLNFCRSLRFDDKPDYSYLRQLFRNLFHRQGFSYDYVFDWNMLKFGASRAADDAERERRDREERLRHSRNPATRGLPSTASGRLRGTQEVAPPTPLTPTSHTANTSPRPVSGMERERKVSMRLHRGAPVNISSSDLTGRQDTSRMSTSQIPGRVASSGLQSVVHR
Procedure, shortened: as §1

[7] = biological target: T7, PKG1a (Homo sapiens, UniProt Q13976)
T7 construct: purchased Reaction Biology Corp
T7 sequence (Q13976 1-671): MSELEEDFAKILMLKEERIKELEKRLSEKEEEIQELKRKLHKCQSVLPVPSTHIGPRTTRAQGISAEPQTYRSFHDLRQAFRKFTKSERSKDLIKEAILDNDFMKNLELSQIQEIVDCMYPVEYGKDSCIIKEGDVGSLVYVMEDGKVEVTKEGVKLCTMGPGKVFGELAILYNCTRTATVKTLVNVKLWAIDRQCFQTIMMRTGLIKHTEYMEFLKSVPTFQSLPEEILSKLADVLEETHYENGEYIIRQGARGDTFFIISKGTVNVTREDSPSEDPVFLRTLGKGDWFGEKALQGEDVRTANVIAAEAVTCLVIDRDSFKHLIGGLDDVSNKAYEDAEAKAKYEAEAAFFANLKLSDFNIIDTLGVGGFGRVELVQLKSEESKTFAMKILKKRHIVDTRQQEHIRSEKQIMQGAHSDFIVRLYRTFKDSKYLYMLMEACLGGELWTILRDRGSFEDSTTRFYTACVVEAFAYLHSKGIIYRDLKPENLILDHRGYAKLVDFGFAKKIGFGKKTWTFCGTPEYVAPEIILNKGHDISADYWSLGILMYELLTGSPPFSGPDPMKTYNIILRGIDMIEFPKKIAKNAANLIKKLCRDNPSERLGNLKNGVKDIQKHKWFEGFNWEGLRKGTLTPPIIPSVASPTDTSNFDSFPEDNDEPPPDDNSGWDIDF
Procedure, shortened: as §1

[8] = read-out: % Enzyme Activity (relative to DMSO controls) Run 1
[9] = read-out: % Enzyme Activity (relative to DMSO controls) Run 2

## C=CC(=O)Nc1cccc(Nc2nc(Nc3ccc(OCCOC)c(F)c3)ncc2F)c1 [Compound 2]
[1]
  inhibition at 3 µM: -42.2%
[1]; [8]
  remaining activity at 3 µM: 141%
[1]; [9]
  remaining activity at 3 µM: 144%
[2]
  inhibition at 3 µM: 9.96%
[2]; [8]
  remaining activity at 3 µM: 89.1%
[2]; [9]
  remaining activity at 3 µM: 90.9%
[3]
  inhibition at 3 µM: -2.59%
[3]; [8]
  remaining activity at 3 µM: 103%
[3]; [9]
  remaining activity at 3 µM: 102%
[4]
  inhibition at 3 µM: -20.1%
[4]; [8]
  remaining activity at 3 µM: 117%
[4]; [9]
  remaining activity at 3 µM: 123%
[5]
  inhibition at 3 µM: 14.5%
[5]; [8]
  remaining activity at 3 µM: 86.6%
[5]; [9]
  remaining activity at 3 µM: 84.5%
[6]
  inhibition at 3 µM: -0.03%
[6]; [8]
  remaining activity at 3 µM: 99.9%
[6]; [9]
  remaining activity at 3 µM: 100%
[7]
  inhibition at 3 µM: 8.73%
[7]; [8]
  remaining activity at 3 µM: 88%
[7]; [9]
  remaining activity at 3 µM: 94.5%
